Laboratory results reported in patent US5219866A, “Octadecyl-[2-(N-methylpiperidino)-ethyl]-phosphate and a process for its preparation” (Asta Medica AG, priority 1991, dated 1993).
In brackets after ≈: the same amount, converted by molar mass.

Experiments:
[1] = test system: Human KB tumour cell line; experiment: EC90, growth inhibition of human KB tumour cell line in vitro; assay type: cell-based; conditions: concentration which inhibits growth of cancer cells in vitro by 90%, read-out: ECqo in μg/ml Human KB tumour cell line in vitro
Protocol: Human KB tumour cell line in
The EC90 is determined in vitro in the same cell line. The EC90 is the concentration of substance having an antitumor effect in μg/ml which inhibits the growth of cancer cells in vitro by 90% in comparison to a control experiment without addition of the antitumor-acting substance.

[2] = test system: human KB tumor cell line which is transplanted in nude mice; experiment: Growth inhibition index WHI in vivo, human KB tumour cell line transplanted into nude mice; design: species or system human (KB tumour); nude mice (host); conditions: for Growth inhibition index WHI in % in vivo/humane KB tumour cell line transplanted into nude: 14th day after treatment related to the value on the day of application, WHI >100% = tumors became smaller
Protocol: Growth inhibition index WHI in % in vivo/humane
Substance KB tumour cell line transplanted into nude
The growth inhibition index WHI is determined in the human KB tumor cell line which is transplanted in nude mice. The growth inhibition index is defined as follows: [formula] of the treated group or in the control group on the 14th day after treatment related to the value on the day of application. […] In other words, the higher the WHI, the stronger the antitumor efficacy of a test substance.
(§1) The compounds of the invention display a good antineoplastic effect in the KB tumor (human carcinoma of the buccal cavity, transplanted subcutaneously to nude mice) and in autochthonous, chemically-induced DMBA-breast gland cancer in the rat.

phospholipase-A2 = phospholipase-A2 inhibition; assay type: biochemical
[3] = test system: blood platelet aggregation; experiment: inhibition of blood platelet aggregation; assay type: cell-based
lipoxygenase = lipoxygenase inhibition; assay type: biochemical
DMBA-breast gland cancer = experiment: autochthonous, chemically-induced DMBA-breast gland cancer in the rat; assay type: in vivo; conditions: oral, 21.5 mg/kg body weight daily, 14-day treatment
Excerpt: as §1

Structure (SMILES) | IC90 [1] | Growth inhibition index WHI in % in vivo/humane KB tumour cell line transplanted into nude [2] | phospholipase-A2-inhibiting effect (phospholipase-A2) | inhibition of blood platelet aggregation [3] | lipoxygenase-inhibiting effect (lipoxygenase) | regression of DMBA tumors weighing 5 g (DMBA-breast gland cancer) | regression of the KB tumors ([2]; 2×316 mg/kg body weight, given at intervals of one week)
CCCCCCCCCCCCCCCCCCOP(=O)([O-])OCC[N+]1(C)CCCCCC1 [D20918] | 1 µg/mL (≈ 2.04 µM) | 0% |  |  |  |  | 
CCCCCCCCCCCCCCCCCCOP(=O)([O-])OCC[N+](C)(C)C [D 19391] | 0.31 µg/mL (≈ 0.712 µM) | 11% |  |  |  |  | 
CCCCCCCCCCCCCCCCCCOP(=O)([O-])OCC[n+]1ccccc1 [D 19862] | > 1 µg/mL | 0% |  |  |  |  | 
CCCCCCCCCCCCCCCCCCOP(=O)([O-])OCC[N+]1(C)CCCCC1 [D 20133, Octadecyl-[2-(N-methylpiperidino)-ethyl]-phosphate] | 0.3 µg/mL (≈ 0.631 µM) | 121% | phospholipase-A2 -inhibiting | causes inhibition of blood platelet aggregation | lipoxygenase-inhibiting effect | regressed to the borderline of palpability | achieved a regression of the KB tumors
CCCCCCCCCCCCCCCCCCOP(=O)([O-])OCC[N+]1(C)CCOCC1 [D 20680] | > 10 µg/mL | 0% |  |  |  |  | 
CCCCCCCCCCCCCCCCCCOP(=O)([O-])OCC[N+]1(CC)CCCCC1 [D 20931] | 1 µg/mL (≈ 2.04 µM) | 13% |  |  |  |  | 
